Source: patent publication US20240309004A1, “SELECTIVE CYCLIN-DEPENDENT KINASE INHIBITORS AND METHODS OF THERAPEUTIC USE THEREOF” (ViroKyne Therapeutics, LLC, priority 2021, published 2024)
Where two headings read alike, the source gives them in different places.

Columns and labels:
[1] = Cytotoxicity concurrent with HCMV AD169 primary assay; type: cell-based, human; conditions: human
[2] = tested on: HCMV strain AD169; assay: HCMV primary assay (CPE), strain AD169, HFF cells; type: cell-based, Human Cytomegalovirus
Experimental: The antiviral activity of the compound against HCMV in the described Primary assay was measured by treating primary Human foreskin fibroblast (HFF) cells infected with HCMV with a range of compound concentrations—description of methods for this assay can be found in section 1.3.2.1. […] . Additional tested assay parameters in this Primary assay can be found in Table 3.2.1 and include EC90, S150, and S190 values—descriptions of those data points can be found in section 3.2.1.

[3] = Cytotoxicity concurrent with HSV2 primary assay; type: cell-based; conditions: human
Experimental: (§1) Assays were performed in monolayers as described. […] Toxicity was measured using CTG as above. […] Toxicity was measured using CTG as above.

[4] = Cytotoxicity concurrent with VZV Ellen primary assay; type: cell-based; conditions: human
Experimental: as §1

[5] = tested on: Epstein-Barr virus Akata strain; assay: Epstein-Barr primary assay, Akata strain, Akata cells; type: cell-based
[6] = Cytotoxicity concurrent with Adenovirus primary assay; type: cell-based; conditions: human
[7] = Cytotoxicity concurrent with EBV primary assay; conditions: human, Akata cells without virus induction
[8] = tested on: HSV2 strain G; assay: HSV2 primary assay, strain G, HFF cells; type: cell-based, herpes simplex virus 2
Experimental: as §1
(§2) Monolayers of HFF cells were prepared in six-well plates and incubated at 37° C. for 2 d to allow the cells to reach confluency. Media was then aspirated from the wells and 0.2 mL of virus-containing solution was added to each of three wells to yield 20-30 plaques in each well. The virus was allowed to adsorb to the cells for 1 h and the plates were agitated every 15 minutes. Compounds were diluted in assay media consisting of MEM with Earl's salts supplemented with 2% FBS, glutamine, penicillin, and gentamycin. Diluted drug was added to duplicate wells and the plates were incubated for various times, depending on the virus used. For HSV-1 and -2, the monolayers were then stained with 1% crystal violet in 20% methanol and the unbound dye removed by washing with dH20. For all other assays, the cell monolayer was stained with 1% Neutral Red solution for 4-6 h then the stain was aspirated and the cells were washed with PBS.

[9] = tested on: HSV1 strain E-377; assay: HSV1 primary assay, strain E-377, HFF cells; type: cell-based, Herpes Simplex Virus 1
Experimental: as §1, §2

[10] = Cytotoxicity concurrent with HSV1 E-377 primary assay; type: cell-based; conditions: human
Experimental: as §1

[11] = tested on: VZV strain Ellen; assay: VZV primary assay, strain Ellen, HFF cells; type: cell-based, Varicella Zoster Virus
Experimental: as §1, §2

[12] = tested on: Adenovirus Adenoid75 strain; assay: Adenovirus primary assay, Adenoid75 strain, HFF cells; type: cell-based; conditions: unidentified adenovirus
[13] = Metabolic stability in mice liver microsomes; conditions: mice liver microsomes, 1 μM compound, 1 mM NADPH, 60 min
Experimental: Potassium phosphate buffer (Kphos) was prepared by adding 0.647 g potassium phosphate monobasic (KH2PO4) and 3.527 g potassium phosphate dibasic (K2HPO4) to 400 mL of Milli-Q water. pH of the buffer was adjusted to 7.4 and volume was made up to 500 mL.
Stock solutions of the test compounds were prepared in DMSO at a concentration of 1 mM.
To this microsomal mix 1.42 μL (1 mM) of test compound and positive control were spiked, from this mix 70 μL was transferred to 96 well plate and pre-incubated at 37° C. for 5 min. […] The plates were centrifuged at 4000 RPM for 15 min and 100 μL aliquots were submitted for analysis by LC-MS/MS.
Samples were monitored for parent compound disappearance in MRM mode using LC-MS/MS. The LC-MS/MS conditions and MRM chromatogram will be provided as per client request.
The peak area ratios of analyte versus internal standard were used to calculate the % remaining at the end of 60 minutes in presence NADPH.

[14] = Human betaherpesvirus 5, HCMV primary assay, virus strain AD169, HFF cells, read-out: EC50
[15] = Human betaherpesvirus 5, HCMV primary assay, virus strain AD169, HFF cells, read-out: EC90
[16] = human gammaherpesvirus 4, Epstein-Barr primary assay, Akata strain, Akata cells, read-out: EC50
[17] = human gammaherpesvirus 4, Epstein-Barr primary assay, Akata strain, Akata cells, read-out: EC90
[18] = Human alphaherpesvirus 2, HSV2 primary assay, strain G, HFF cells, read-out: EC50
[19] = Human alphaherpesvirus 2, HSV2 primary assay, strain G, HFF cells, read-out: EC90
[20] = Human alphaherpesvirus 1, HSV1 primary assay, strain E-377, HFF cells, read-out: EC50
[21] = Human alphaherpesvirus 1, HSV1 primary assay, strain E-377, HFF cells, read-out: EC90
[22] = Human alphaherpesvirus 3, VZV primary assay, strain Ellen, cell line HFF, read-out: EC50
[23] = Human alphaherpesvirus 3, VZV primary assay, strain Ellen, cell line HFF, read-out: EC90
[24] = Adenovirus primary assay, HFF cells, Adenoid75 strain, read-out: EC50
[25] = Adenovirus primary assay, HFF cells, Adenoid75 strain, read-out: EC90
[26] = human gammaherpesvirus 4, Akata
[27] = Human betaherpesvirus 5, AD169, HFF

| SMILES | CC50 ([1]; CC50) | EC50 [2, 14] | EC90 [2, 15] | CC50 [3] | CC50 [4] | CC50 [6] | CC50 at 72 h [7] | EC50 [9, 20] | EC90 [9, 21] | CC50 [10] | other results |
| --- | --- | --- | --- | --- | --- | --- | --- | --- | --- | --- | --- |
| CC(C)(C)OC(=O)NCC1CCC(Nc2cc3c4ccc(F)cc4nn3cn2)CC1 (stereo not drawn) [VKT-001] | 6.19 µM | 2 µM | 2 µM |  |  |  |  |  |  |  |  |
| NCC1CCC(Nc2cc3c4ccc(F)cc4nn3cn2)CC1 (stereo not drawn) [VKT-002] | 7.42 µM | 2 µM | 2 µM | 24.4 µM | 7.9 µM | 21.2 µM | 6.69 µM | 10 µM | 10 µM | 20.8 µM | EC50 [5, 16]: 1.78 µM; EC90 [5, 17]: 2 µM; EC50 [8, 18]: 10 µM; EC90 [8, 19]: 10 µM; EC50 [11, 22]: 2 µM; EC90 [11, 23]: 2 µM; EC50 [12, 24]: 4.44 µM; EC90 [12, 25]: 10 µM |
| CN(C(=O)OC(C)(C)C)C1CCC(Nc2cc3c4ccc(F)cc4nn3cn2)CC1 (stereo not drawn) [VKT-005] | 1.48 µM | 0.4 µM | 0.4 µM | 7.94 µM | 1.48 µM | 3.81 µM | 39.4 µM | 10 µM | 10 µM | 16 µM | EC50 [5, 16]: 10 µM; EC90 [5, 17]: 10 µM; EC50 [8, 18]: 2 µM; EC90 [8, 19]: 2 µM; EC50 [11, 22]: 0.4 µM; EC90 [11, 23]: 0.4 µM; EC50 [12, 24]: 2 µM; EC90 [12, 25]: 2 µM |
| CNC1CCC(Nc2cc3c4ccc(F)cc4nn3cn2)CC1 (stereo not drawn) [VKT-006] | 32.5 µM | 10 µM | 10 µM | 42.8 µM | 27.2 µM | 30.5 µM | 33.5 µM | 10 µM | 10 µM | 38.5 µM | EC50 [5, 16]: 8.32 µM; EC90 [5, 17]: 10 µM; EC50 [8, 18]: 10 µM; EC90 [8, 19]: 10 µM; EC50 [11, 22]: 10 µM; EC90 [11, 23]: 10 µM; EC50 [12, 24]: 10 µM; EC90 [12, 25]: 10 µM |
| CN(C)C1CCC(Nc2cc3c4ccc(F)cc4nn3cn2)CC1 (stereo not drawn) [VKT-007] |  |  |  |  |  |  |  | 10 µM | 10 µM | 16.1 µM | % Remaining at 60 min [13]: 54% |
| CN(C)CC1CCC(Nc2cc3c4ccc(F)cc4nn3cn2)CC1 (stereo not drawn) [VKT-008] | 38.8 µM | 10 µM | 10 µM | 50 µM | 37.2 µM | 48.6 µM | 50 µM | 50 µM | 50 µM | 50 µM | EC50 [5, 16]: 8.16 µM; EC90 [5, 17]: 44 µM; EC50 [8, 18]: 50 µM; EC90 [8, 19]: 50 µM; EC50 [11, 22]: 10 µM; EC90 [11, 23]: 10 µM; EC50 [12, 24]: 10 µM; EC90 [12, 25]: 10 µM |
| CN(c1cc2c3ccc(F)cc3nn2cn1)C1CCC(CNC(=O)OC(C)(C)C)CC1 (stereo not drawn) [VKT-009-A] | 0.57 µM | 0.4 µM | 0.4 µM |  |  |  |  |  |  |  |  |
| CN(CC1CCC(N(C)c2cc3c4ccc(F)cc4nn3cn2)CC1)C(=O)OC(C)(C)C (stereo not drawn) [VKT-009-B] | 0.17 µM | 0.08 µM | 0.08 µM |  |  |  |  |  |  |  |  |
| CC1CC(Nc2cc3c4ccc(F)cc4nn3cn2)CCO1 (stereo not drawn) [VKT-011] | 38.6 µM | 10 µM | 10 µM |  |  |  |  |  |  |  |  |
| CC1CC(Nc2cc3c4ccc(F)cc4nn3cn2)CC(C)O1 (stereo not drawn) [VKT-013] | 48.1 µM | 10 µM | 10 µM |  |  |  |  |  |  |  |  |
| Fc1ccc2c(c1)nn1cnc(NC3COCCOC3)cc21 [VKT-016] | 48.5 µM | 10 µM | 10 µM |  |  |  |  |  |  |  |  |
| Fc1ccc2c(c1)nn1cnc(NC3CCSCC3)cc21 [VKT-017] | 21.4 µM | 10 µM | 10 µM | 50 µM | 37.1 µM | 46.7 µM | 50 µM | 50 µM | 50 µM | 50 µM | EC50 [5, 16]: 23.4 µM; EC90 [5, 17]: 41.5 µM; EC50 [8, 18]: 50 µM; EC90 [8, 19]: 50 µM; EC50 [11, 22]: 10 µM; EC90 [11, 23]: 10 µM; EC50 [12, 24]: 10 µM; EC90 [12, 25]: 10 µM |
| CN1CCC(Nc2cc3c4ccc(F)cc4nn3cn2)CC1 [VKT-023] | 46 µM |  |  | 50 µM | 44.7 µM | 50 µM | 50 µM |  |  | 50 µM | EC50 [5, 26]: 29.5 µM; EC90 [5, 26]: 50 µM; EC50 ([8]; Human alphaherpesvirus 2, HFF): 50 µM; EC90 ([8]; Human alphaherpesvirus 2, HFF): 50 µM; EC50 [2, 27]: 10 µM; EC90 [2, 27]: 10 µM; EC50 ([9]; Human alphaherpesvirus 1, HFF): 50 µM; EC90 ([9]; Human alphaherpesvirus 1, HFF): 50 µM; EC50 ([11]; Human alphaherpesvirus 3, HFF): 10 µM; EC90 ([11]; Human alphaherpesvirus 3, HFF): 10 µM; EC50 ([12]; HFF): 50 µM; EC90 ([12]; HFF): 50 µM |
| CCN1CCC(Nc2cc3c4ccc(F)cc4nn3cn2)CC1 [VKT-025] | 48.1 µM | 10 µM | 10 µM |  |  |  |  |  |  |  |  |
| CN(C)CC(=O)N1CCC(Nc2cc3c4ccc(F)cc4nn3cn2)CC1 [VKT-028] | 32 µM | 10 µM | 10 µM |  |  |  |  |  |  |  |  |
| CNC(=O)CN1CCC(Nc2cc3c4ccc(F)cc4nn3cn2)CC1 [VKT-031] | 50 µM | 50 µM | 50 µM |  |  |  |  |  |  |  |  |
| OCCC1CCC(Nc2cc3c4ccc(F)cc4nn3cn2)CC1 (stereo not drawn) [VKT-032] |  |  |  |  |  |  |  |  |  |  | CC50 ([1]; HCMV primary assay, HFF cells, read-out: CC50): 26.2 µM; EC50 [2, 27]: 10 µM; EC90 [2, 27]: 10 µM |
| N[C@@H]1CC[C@H](Nc2cc3c4ccc(F)cc4nn3cn2)C1 [VKT-034] |  |  |  |  |  |  |  | 10 µM | 10 µM | 18.7 µM | % Remaining at 60 min [13]: 81% |
| CC(C)(C)OC(=O)N[C@H]1CCC(Nc2cc3c4ccc(F)cc4nn3cn2)C1 (stereo partly drawn) [VKT-035] | 8.14 µM | 2 µM | 2 µM | 17.7 µM | 7.6 µM | 17.5 µM | 31.9 µM | 10 µM | 10 µM | 15.9 µM | EC50 [5, 16]: 10 µM; EC90 [5, 17]: 10 µM; EC50 [8, 18]: 10 µM; EC90 [8, 19]: 10 µM; EC50 [11, 22]: 2 µM; EC90 [11, 23]: 2 µM; EC50 [12, 24]: 10 µM; EC90 [12, 25]: 10 µM |
| N[C@H]1CC[C@H](Nc2cc3c4ccc(F)cc4nn3cn2)C1 [VKT-036] |  |  |  |  |  |  |  | 10 µM | 10 µM | 29.4 µM | % Remaining at 60 min [13]: 82% |
| Fc1ccc2c(c1)nn1cnc(NC3CCNCC3)cc21 [VKT-319, 7-fluoro-N-(piperidin-4-yl)pyrimido[1,6-b]indazol-3-amine] | 37.5 µM | 10 µM | 10 µM |  |  |  |  |  |  |  |  |
